Legend:
[1] = molecular target: human serum albumin (HSA) (Homo sapiens, UniProt P02768); experiment: Isothermal scanning calorimetry (ITC) of ligand association with HSA; assay type: binding; details: for Kd: ligand 400 μM injected into HSA 10 μM, PBS pH 7.4, 23° C., read-out: Association-constant to HSA K (Ka) (converted)
Method: The data was obtained for 15 automatic injections each of 2.7 The total duration of the experiments was 45 min (2A). […] Sample cell contained HSA at a concentration of 10 μM. Both components were dissolved in PBS-buffer pH=7.4. The experiment was conducted at 23° C.
(iv) Isothermal scanning calorimetry measurements were performed with iTC200 microcalorimeter (MicroCal LLC, Nothampton Mass., USA), according to the manufacturer's instructions.

E. Coli = details: previously disclosed (Shechter et al., 2002; Marcus et al., 2008); read-out: IC50, inhibition of E. Coli replication; cited from earlier work
[2] = background statement; cited from earlier work
HSA = HSA (Homo sapiens, UniProt P02768); details: immobilized HSA binding strategy, Markusen et al., 1996; cited from earlier work
CD1-mice = details: at any dosage, previously described; cited from earlier work

human serum albumin (HSA), sequence (P02768 25-609): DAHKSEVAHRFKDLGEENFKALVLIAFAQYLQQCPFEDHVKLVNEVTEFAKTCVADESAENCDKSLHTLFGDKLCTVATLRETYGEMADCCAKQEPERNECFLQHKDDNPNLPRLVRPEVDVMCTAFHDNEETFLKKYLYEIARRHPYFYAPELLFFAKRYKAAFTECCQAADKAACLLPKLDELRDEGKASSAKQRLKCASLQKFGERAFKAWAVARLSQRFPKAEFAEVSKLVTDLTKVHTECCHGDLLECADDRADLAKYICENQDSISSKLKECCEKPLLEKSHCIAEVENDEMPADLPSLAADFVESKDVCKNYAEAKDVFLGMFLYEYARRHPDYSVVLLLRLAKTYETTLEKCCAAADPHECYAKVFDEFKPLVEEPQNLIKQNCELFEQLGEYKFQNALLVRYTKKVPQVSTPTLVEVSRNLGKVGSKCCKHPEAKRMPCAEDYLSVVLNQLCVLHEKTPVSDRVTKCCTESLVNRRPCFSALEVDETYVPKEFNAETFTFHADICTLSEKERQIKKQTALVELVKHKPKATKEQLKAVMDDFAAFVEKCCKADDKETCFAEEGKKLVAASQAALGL
HSA, sequence (P02768 25-609): as above

Question: With O=C(O)CCCCCCCCCCSC1CC(=O)NC1=O (stereo not shown) as the compound, how does the Kd [1] read?
Answer: The Kd was 7.69 µM.

Question: With O=C(O)CNC(=O)OCC1c2cc(NC(=O)CCN3C(=O)C=CC3=O)ccc2-c2ccc(S(=O)(=O)O)cc21 (stereo not shown) [Glycine-FMS-MAL, 2-(((2-(3-(2,5-dioxo-2,5-dihydro-1H-pyrrol-1-yl)propanamido)-7-sulfo-9H-fluoren-9-yl)methoxy)carbonylamino)acetic acid] as the compound, how does the Kd [1] read?
Answer: The Kd was 7.14 µM.

Question: With O=C(O)CCCCCCCCCCCCCCCSC1CC(=O)NC1=O (stereo not shown) [MAL-S—(CH2)15—COOH, 16-(2,5-dioxopyrrolidin-3-ylthio)hexadecanoic acid] as the compound, how does the Kd [1] read?
Answer: Its Kd is 6.45 µM.

Question: For Gentamicin, which IC50 (E. Coli) is on record?
Answer: The IC50 was 2.1 ± 0.2 µM.

Question: For “N^εB29-tetradecanoyl des(B30) insulin [insulin-detemir]”, which duration of action [2] is on record?
Answer: The duration of action was “up to 24 hours”.

Question: And the “N (binding sites, OneSites model)” value ([1]; PBS pH 7.4)?
Answer: The value was 0.693±0.0430 sites.

Question: What about the “ΔH of binding to HSA” value ([1]; PBS pH 7.4) of the same compound?
Answer: Its value is -4.575 ± 0.4067 kcal/mol.

Question: And the “ΔS of binding to HSA” value ([1]; PBS pH 7.4)?
Answer: The value was 6.79 (cal/mol)/deg.

Question: What about the “Ka, binding affinity to HSA” value (HSA) of the same compound?
Answer: The value was 2.4±0.7×10^5 M^−1.

Question: Which “threshold decrease of circulating blood glucose level” value (CD1-mice) does the source give for exendin-4 here?
Answer: The value was 27±3%.

— US20120134977A1 (YEDA RESEARCH AND DEVELOPMENT CO. LTD., priority 2009, published 2012)
